Read-outs that look alike come from different tables or passages of the source.
Assays:
HT-29 (colon) cell line [1] = test system: HT-29 (colon) cell line; parameters: method as in PMID 36197552; details: previous research ref 29; cited from earlier work
[2] = test system: HeLa (cervical) cell line; parameters: method as in PMID 36197552; details: previous research ref 29; cited from earlier work
[3] = test system: HeLa (cervical) cell line; experiment: MTT cytotoxic activity assay, HeLa; assay type: cell-based, human; details: 72 h; for IC50: Homo sapiens, HeLa
Description: (§1) All the synthesized tricyclic pyrrolo[2,3-d]pyrimidines 8a–j and 10a–f were evaluated for their cytotoxic activity on cancer cell lines derived from the most common cancers: breast (MCF-7), cervical (HeLa), and colon (HT-29). Human cancer cell lines were treated with synthesized compounds, using doxorubicin (DOX) as a positive control, at concentrations of the compounds ranging from 0.001 to 6.561 μM. Cells were incubated at 37 °C for 72 h before measurement, and IC50 values were determined graphically. In our previous research, the cytotoxic activity of compounds 6a and 6b was also evaluated on the same human cancer cell lines used in the current study.
(§2) The MCF-7, HeLa, and HT-29 cell lines, obtained from the Chinese Type Culture Collection, CAS (Shanghai, China), were used as models for cytotoxicity screening. The samples were dissolved in dimethyl sulfoxide (DMSO) (50 μM) and stored at 4 °C. Cell viability was determined using the MTT assay. For the MTT assay, the target cells were seeded in 96-well plates and treated with the synthesized samples for 72 h. Then, 5 mg/mL MTT was added to the culture medium, and 10 μL/well was added. The plate was then incubated in the dark at 37 °C for 4 h. The medium was removed, and 100 μL of dimethyl sulfoxide was added per well. OD570 was measured using Spectra Max M5 (Molecular Devices, CA, USA). Cell viability (%) = ODcompound /ODDMSO × 100%. IC50 values were calculated using GraphPad Prism 9 (CA, USA) by nonlinear regression of the log-transformed data (X Log[X]), with the log (inhibitor) vs. normalized response-variable slope tool.

HT-29 (colon) cell line [4] = experiment: MTT cytotoxic activity assay, HT-29; assay type: cell-based; details: Homo sapiens, 72 h
Description: as §1, §2

MCF-7 (breast) cell line = experiment: MTT cytotoxic activity assay, MCF-7; assay type: cell-based, human; details: for IC50: Homo sapiens, MCF7, 72 h
Description: as §1, §2

[5] = test system: human embryonic kidney (HEK-293) cells; experiment: Cytotoxicity on non-cancerous HEK-293 cells; assay type: cell-based; details: HEK293, read-out: IC50 (±SD), HEK-293
Description: On the other hand, the inactivity of these leads on HeLa and MCF-7 cells (IC50 ≥ 50 µM) indicates specific tumor type selectivity. […] The selectivity index (SI) was then calculated as the ratio of the IC50 values for HEK-293 and HT-29 cells and is shown in Table 2.
as §2

[6] = test system: HeLa, MCF-7 and HT-29 cell lines; experiment: MTT cytotoxic activity, stated across the three cancer cell lines; assay type: cell-based, human; details: span over HeLa, MCF-7, HT-29; for IC50: Homo sapiens, read-out: IC50 across all three cell lines
Description: as §1, §2

SMILES | IC50 [3] [µM] | IC50 (HT-29 (colon) cell line [4]) [µM] | IC50 (MCF-7 (breast) cell line) [µM] | also measured
Cn1c(-c2ccc(Cl)cc2)cc2c(=O)n3c(nc21)CCCC3 [Compound 6a, 2-(4-Chlorophenyl)-1-methyl-6,7,8,9-tetrahydropyrido[1,2-a]pyrrolo[2,3-d]pyrimidin-4(1H)-one] | – | – | – | IC50 (HT-29 (colon) cell line [1]): 24 ± 0.47 µM; IC50 [2]: 6.55 ± 0.31 µM
Cn1c(-c2ccc(Br)cc2)cc2c(=O)n3c(nc21)CCCCC3 [Compound 6b, 2-(4-Bromophenyl)-1-methyl-1,6,7,8,9,10-hexahydro-4H-pyrrolo[2’,3’:4,5]pyrimido[1,2-a]azepin-4-one] | – | – | – | IC50 (HT-29 (colon) cell line [1]): 7.61 ± 0.31 µM; IC50 [2]: ≥ 50 µM
Cn1c(-c2ccc(Cl)cc2)cc2/c(=N\c3ccccc3)n3c(nc21)CCCC3 [Compound 8a, (E)-2-(4-Chlorophenyl)-1-methyl-N-phenyl-6,7,8,9-tetrahydropyrido[1,2-a]pyrrolo[2,3-d]pyrimidin-4(1H)-imine] | ≥ 50 | 19.2 ± 0.91 | ≥ 50 | –
Cn1c(-c2ccc(Cl)cc2)cc2/c(=N\c3ccc(F)cc3)n3c(nc21)CCCC3 [Compound 8b, (E)-2-(4-Chlorophenyl)-N-(4-fluorophenyl)-1-methyl-6,7,8,9-tetrahydropyrido[1,2-a]pyrrolo[2,3-d]pyrimidin-4(1H)-imine] | ≥ 50 | ≥ 50 | ≥ 50 | –
Cn1c(-c2ccc(Cl)cc2)cc2/c(=N\c3ccc(Cl)cc3)n3c(nc21)CCCC3 [Compound 8c, (E)-N,2-Bis(4-chlorophenyl)-1-methyl-6,7,8,9-tetrahydropyrido[1,2-a]pyrrolo[2,3-d]pyrimidin-4(1H)-imine] | ≥ 50 | ≥ 50 | ≥ 50 | –
Cn1c(-c2ccc(Cl)cc2)cc2/c(=N\c3ccc(Br)cc3)n3c(nc21)CCCC3 [Compound 8d, (E)-N-(4-Bromophenyl)-2-(4-chlorophenyl)-1-methyl-6,7,8,9-tetrahydropyrido[1,2-a]pyrrolo[2,3-d]pyrimidin-4(1H)-imine] | ≥ 50 | ≥ 50 | ≥ 50 | –
Cn1c(-c2ccc(Cl)cc2)cc2/c(=N\c3ccc(C(F)(F)F)cc3)n3c(nc21)CCCC3 [Compound 8e, (E)-2-(4-Chlorophenyl)-1-methyl-N-(4-(trifluoromethyl)phenyl)-6,7,8,9-tetrahydropyrido[1,2-a]pyrrolo[2,3-d]pyrimidin-4(1H)-imine] | ≥ 50 | ≥ 50 | ≥ 50 | –
Cn1c(-c2ccc(Br)cc2)cc2/c(=N\c3ccccc3)n3c(nc21)CCCCC3 [Compound 8f, (E)-2-(4-Bromophenyl)-1-methyl-N-phenyl-1,6,7,8,9,10-hexahydro-4H-pyrrolo[2’,3’:4,5]pyrimido[1,2-a]azepin-4-imine] | ≥ 50 | 4.55 ± 0.23 | ≥ 50 | IC50 [5]: 195 ± 0.07 µM
Cn1c(-c2ccc(Br)cc2)cc2/c(=N\c3ccc(F)cc3)n3c(nc21)CCCCC3 [Compound 8g, (E)-2-(4-Bromophenyl)-N-(4-fluorophenyl)-1-methyl-1,6,7,8,9,10-hexahydro-4H-pyrrolo[2’,3’:4,5]pyrimido[1,2-a]azepin-4-imine] | ≥ 50 | 4.01 ± 0.2 | ≥ 50 | IC50 [5]: 169 ± 0.1 µM
Cn1c(-c2ccc(Br)cc2)cc2/c(=N\c3ccc(Cl)cc3)n3c(nc21)CCCCC3 [Compound 8h, (E)-2-(4-Bromophenyl)-N-(4-chlorophenyl)-1-methyl-1,6,7,8,9,10-hexahydro-4H-pyrrolo[2’,3’:4,5]pyrimido[1,2-a]azepin-4-imine] | ≥ 50 | ≥ 50 | ≥ 50 | –
Cn1c(-c2ccc(Br)cc2)cc2/c(=N\c3ccc(Br)cc3)n3c(nc21)CCCCC3 [Compound 8i, (E)-N,2-Bis(4-bromophenyl)-1-methyl-1,6,7,8,9,10-hexahydro-4H-pyrrolo[2’,3’:4,5]pyrimido[1,2-a]azepin-4-imine] | ≥ 50 | ≥ 50 | ≥ 50 | –
Cn1c(-c2ccc(Br)cc2)cc2/c(=N\c3ccc(C(F)(F)F)cc3)n3c(nc21)CCCCC3 [Compound 8j, (E)-2-(4-Bromophenyl)-1-methyl-N-(4-(trifluoromethyl)phenyl)-1,6,7,8,9,10-hexahydro-4H-pyrrolo[2’,3’:4,5]pyrimido[1,2-a]azepin-4-imine] | ≥ 50 | ≥ 50 | ≥ 50 | –
Cn1c(-c2ccc(Cl)cc2)c(Cl)c2c(=O)n3c(nc21)CCCC3 [Compound 10a, 3-Chloro-2-(4-chlorophenyl)-1-methyl-6,7,8,9-tetrahydropyrido[1,2-a]pyrrolo[2,3-d]pyrimidin-4(1H)-one] | 22.8 ± 0.98 | 24.7 ± 1.13 | 27.5 ± 1.07 | IC50, HeLa [3]: moderate activity; IC50 [6]: 23 to 28 µM
Cn1c(-c2ccc(Cl)cc2)c(Br)c2c(=O)n3c(nc21)CCCC3 [Compound 10b, 3-Bromo-2-(4-chlorophenyl)-1-methyl-6,7,8,9-tetrahydropyrido[1,2-a]pyrrolo[2,3-d]pyrimidin-4(1H)-one] | ≥ 50 | ≥ 50 | 20.1 ± 0.93 | IC50, MCF-7 (MCF-7 (breast) cell line; 72 h): moderate activity; IC50 across all three cell lines [6]: selective yet weaker activity
Cn1c(-c2ccc(Cl)cc2)c(I)c2c(=O)n3c(nc21)CCCC3 [Compound 10c, 2-(4-Chlorophenyl)-3-iodo-1-methyl-6,7,8,9-tetrahydropyrido[1,2-a]pyrrolo[2,3-d]pyrimidin-4(1H)-one] | ≥ 50 | 34.2 ± 1.6 | ≥ 50 | IC50 across all three cell lines [6]: selective yet weaker activity
Cn1c(-c2ccc(Br)cc2)c(Cl)c2c(=O)n3c(nc21)CCCCC3 [Compound 10d, 2-(4-Bromophenyl)-3-chloro-1-methyl-1,6,7,8,9,10-hexahydro-4H-pyrrolo[2’,3’:4,5]pyrimido[1,2-a]azepin-4-one] | ≥ 50 | ≥ 50 | ≥ 50 | –
Cn1c(-c2ccc(Br)cc2)c(Br)c2c(=O)n3c(nc21)CCCCC3 [Compound 10e, 3-Bromo-2-(4-bromophenyl)-1-methyl-1,6,7,8,9,10-hexahydro-4H-pyrrolo[2’,3’:4,5]pyrimido[1,2-a]azepin-4-one] | ≥ 50 | 16 ± 0.75 | ≥ 50 | IC50 across all three cell lines [6]: selective yet weaker activity
Cn1c(-c2ccc(Br)cc2)c(I)c2c(=O)n3c(nc21)CCCCC3 [Compound 10f, 2-(4-Bromophenyl)-3-iodo-1-methyl-1,6,7,8,9,10-hexahydro-4H-pyrrolo[2’,3’:4,5]pyrimido[1,2-a]azepin-4-one] | ≥ 50 | 19 ± 0.92 | ≥ 50 | IC50 across all three cell lines [6]: selective yet weaker activity
COc1cccc2c1C(=O)c1c(O)c3c(c(O)c1C2=O)C[C@@](O)(C(=O)CO)C[C@@H]3O[C@H]1C[C@H](N)[C@H](O)[C@H](C)O1 [DOX, doxorubicin, reference compound] | 0.94 ± 0.016 | 0.82 ± 0.029 | 0.18 ± 0.011 | IC50 [6]: 0.18 to 0.94 µM
